In patent US20210181180A1, “METHOD FOR IDENTIFYING MALODOUR COUNTERACTANTS” (TAKASAGO INTERNATIONAL CORPORATION, priority 2016, published 2021):

Biological target: T1, OR4E2 (Homo sapiens, UniProt Q8NGC2, Q234R/V118M)
T1 construct: expressed in transfected cells; host or cells: HEK293T cells expressing hRTP1s, transiently transfected with pcDNA5-OR4E2 and pNL(NlucP/CRE/Hygro)
T1 sequence (Q8NGC2 1-313 V118M/Q234R): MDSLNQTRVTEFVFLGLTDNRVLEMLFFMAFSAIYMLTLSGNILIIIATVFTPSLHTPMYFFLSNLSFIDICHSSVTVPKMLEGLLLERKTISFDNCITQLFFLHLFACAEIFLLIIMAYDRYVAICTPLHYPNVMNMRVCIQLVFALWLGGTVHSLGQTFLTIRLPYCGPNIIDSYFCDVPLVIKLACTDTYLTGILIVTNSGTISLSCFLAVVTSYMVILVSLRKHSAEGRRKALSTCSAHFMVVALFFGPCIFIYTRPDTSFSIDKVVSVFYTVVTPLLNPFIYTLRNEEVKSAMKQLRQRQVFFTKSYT
Assay: OR4E2 CRE-NanoLuc luciferase reporter assay in transiently transfected HEK293T cells
Assay type: cell-based
Conditions: for response of OR4E2 to increasing concentrations of sulphur odorant (OR4E2 activation): seven concentrations 3-300 μM, 4 hours stimulation, luciferase activity, FIGS. 1A and 1B
Method: The experiments were performed using HEK293T cells (available e.g. from GE Healthcare) […] expressing the auxiliary protein hRTP1s, essential for efficient receptor trafficking to the plasma membrane (NPL 10, NPL 11; and NPL 12). The cell line was maintained in Dulbecco's modified Eagle Medium (DMEM, Euroclone) supplemented with 10% FBS (Fetal Bovine Serum, Euroclone cat. ECS0180L), 1% Penicillin/Streptomycin (Euroclone cat. B3001D), 50 μg/mL G418, […], and 10 μg/mL Zeocin.
The cDNA for OR4E2 was generated by custom gene synthesis (LifeTechnologies). The receptor DNA was then subcloned in frame 3′ from a transmembrane, localization epitope into a pcDNA5 expression vector (NPL 13). The correct identity of the receptor was checked by automated sequencing.
All sulphur odorants were prepared as 100 mM stock solutions using DMSO as a solvent and stored at −20″C. Copper(II) sulfate was prepared as an aqueous 30 mM stock solution. […]
The cDNA for the OR4E2 receptor was co-transfected with pNL(NlucP/CRE/Hygro) (Promega). […] The enzyme is about 100-fold brighter than either firefly (Photinus pyralis) or Renilla reniformis luciferase using a novel substrate, furimazine, to produce high intensity, glow-type luminescence. […]
24 hours post-transfection the medium was removed from the transfected cells and 30 μL of Tyrode's buffer containing the diluted sulphur odorant were added over 4 hours at 37° C. The cells were then transferred into an automated fluorometric imaging plate reader (FLIPR Tetra (registered trademark), Molecular Devices). […]
The data obtained from different well replicates (n=4) were analysed with Excel, ScreenWorks, and SigmaPiot 11, The responses of the receptor to the sulphur odorants were divided by the mean responses of the receptor towards Tyrode's buffer (fold of change: FOC). The mean and standard deviation of the resulting FOC values were calculated and plotted in vertical bar charts or concentration-response curves fitted by the SigmaPlot 11 software. […]

Row | SMILES | response of OR4E2 to increasing concentrations of sulphur odorant (OR4E2 activation) | OR4E2 activator (used at 300 μM as activating sulphur odorant in Example 2)
1 | CC(C)(S)CCO [3-mercapto-3-methylbutanol] | positive effect | 
2 | CSCSC [2,4-dithiapentane] |  | OR4E2 activator
3 | C=CCSSSCC=C [diallyl trisulfide] | positive effect | 
